Results published in US20220087960A1, “Oral Pharmaceutical Immediate Release Composition” (Aardvark Therapeutics Inc., priority 2020, published 2022).
“Also recorded” adds a separate entry of the source.

System: diet-induced obesity (DIO) mouse model
Assay: 56-day DIO mouse weight loss study comparing DA and DB (Example 3)
Format: in vivo
Settings: DIO mice
Description: The 56-day study determined the behavioral effects of bitter taste receptor agonists denatonium acetate (DA) compared to denatonium benzoate (DB) in a diet-induced obesity (DIO) mouse model. […] The study duration was a 3-5 day acclimation period+[…] study period and 2-3 day testing period after study. […] The mice were C57BL/6NTad mice at least 12 weeks in age and 15 mice per group (low dose DA, higher dose DA, high dose DB and control). […] Metabolic biomarkers (blood glucose, blood insulin, blood HbA1c) were measured at the beginning and end of the study. The DA, DB or distilled water control was administered per ostium gavage (PO) at a volume of 5 mL/kg body weight.

CC(=O)[O-].CC[N+](CC)(CC(=O)Nc1c(C)cccc1C)Cc1ccccc1 [DA, Denatonium acetate]
body weights at the indicated days (FIG. 1) (56 day study, DA 23.1 mg/kg BID PO): lowest average body weights
body weight changes of the 56 day study (FIG. 2) (DA 23.1 mg/kg BID PO compared with DB 26.8 mg/kg BID): lowest increase in body weight; also recorded: weight loss improvement of higher dose DA over higher dose DB
serum insulin at the end of the 56 day study (FIG. 3) (DA 23.1 mg/kg BID PO, compared with pre-treatment and vehicle): close to baseline value
